{
  "source": "paper PMC10612060",
  "about": "(Viruses, 2023)",
  "key": {"[1]": {"system": "SARS-CoV-2 gamma strain (hCoV-19/Japan/TY7-501/2021)", "set-up": "method as in earlier work", "conditions": "extrapolated to 100% mouse serum, cited from earlier work"}, "[2]": {"system": "SARS-CoV-2 gamma strain hCoV-19/Japan/TY7-501/2021", "type": "in vivo, BALB/c mice"}, "in vivo": {"test": "in vivo", "set-up": "species or system mice", "conditions": "mouse plasma, simulated; for Cmax / AUC(0-t): BALB/c, mouse, in vivo, po; for AUC(0-t): read-out: AUC0–48h"}, "[3]": {"system": "SARS-CoV-2 gamma strain (hCoV-19/Japan/TY7-501/2021)", "conditions": "cited from earlier work; for Viral titer in lungs: twice daily for 2 d, Day 2, individual mice 1-5, previously reported ref 12"}, "[4]": {"test": "Adverse effects in rodents at exposure of the maximum dose", "type": "in vivo", "conditions": "same exposure conditions as the maximum dose administered to mice"}, "[5]": {"conditions": "8 mg/kg, thrice daily for 2 d, 8 mg/kg oral"}, "[6]": {"conditions": "8 mg/kg, twice daily for 2 d, 8 mg/kg oral"}, "[7]": {"conditions": "16 mg/kg, once daily for 2 d, 16 mg/kg oral"}, "[8]": {"conditions": "16 mg/kg, thrice daily for 2 d, 16 mg/kg oral"}, "[9]": {"conditions": "16 mg/kg, twice daily for 2 d, 16 mg/kg oral"}, "[10]": {"conditions": "32 mg/kg, once daily for 2 d, 32 mg/kg oral"}, "[11]": {"conditions": "32 mg/kg, one shot, 32 mg/kg oral"}, "[12]": {"conditions": "32 mg/kg, thrice daily for 2 d, 32 mg/kg oral"}, "[13]": {"conditions": "32 mg/kg, twice daily for 2 d, 32 mg/kg oral"}, "[14]": {"conditions": "64 mg/kg, once daily for 2 d, 64 mg/kg oral"}, "[15]": {"conditions": "64 mg/kg, one shot, 64 mg/kg oral"}, "[16]": {"conditions": "64 mg/kg, thrice daily for 2 d, 64 mg/kg oral"}, "[17]": {"conditions": "64 mg/kg, twice daily for 2 d, 64 mg/kg oral"}},
  "note": "pEC50: −log10 of the molar value. “And” between values parts separate entries of the source, which are not always exact repeats. Identical values can stand only once. Like-named read-outs stand apart in the source and are kept apart here.",
  "data": [
    {"compound": "Cn1cnc(Cn2c(=O)[nH]/c(=N\\c3cc4cn(C)nc4cc3Cl)n(Cc3cc(F)c(F)cc3F)c2=O)n1", "note": "[ensitrelvir, ensitrelvir fumaric acid]", "values": [
      {"measurement": "Mouse PA-EC50", "setting": "[1]", "result": 2.09, "unit": "mg/L"},
      {"measurement": "pEC50", "setting": "[1]; read-out: Mouse PA-EC50", "result": 5.41},
      {"measurement": "Antiviral activity when administration delayed 72 h post-infection", "setting": "[2]; given during the viral clearance phase", "result": "dose-dependent antiviral activity"},
      {"measurement": "Dose that significantly lowered lung viral titers compared to vehicle", "setting": "[2]; mouse, in vivo", "result": "≥ 8", "unit": "mg/kg"},
      {"measurement": "Cmax", "setting": "in vivo; [5]", "result": 21500, "unit": "ng/mL"},
      {"measurement": "AUC(0-t)", "setting": "in vivo; [5]", "result": 657, "unit": "µg·h/mL"},
      {"measurement": "Cmax", "setting": "in vivo; [6]", "result": 18100, "unit": "ng/mL"},
      {"measurement": "AUC(0-t)", "setting": "in vivo; [6]", "result": 446, "unit": "µg·h/mL"},
      {"measurement": "Cmax", "setting": "in vivo; [7]", "result": 38800, "unit": "ng/mL"},
      {"measurement": "AUC(0-t)", "setting": "in vivo; [7]", "result": 475, "unit": "µg·h/mL"},
      {"measurement": "Cmax", "setting": "in vivo; [8]", "result": 47600, "unit": "ng/mL"},
      {"measurement": "AUC(0-t)", "setting": "in vivo; [8]", "result": 1390, "unit": "µg·h/mL"},
      {"measurement": "Cmax", "setting": "in vivo; [9]", "result": 41300, "unit": "ng/mL"},
      {"measurement": "AUC(0-t)", "setting": "in vivo; [9]", "result": 941, "unit": "µg·h/mL"},
      {"measurement": "Cmax", "setting": "in vivo; [10]", "result": 72500, "unit": "ng/mL"},
      {"measurement": "AUC(0-t)", "setting": "in vivo; [10]", "result": 1020, "unit": "µg·h/mL"},
      {"measurement": "Cmax", "setting": "in vivo; [11]", "result": 72400, "unit": "ng/mL"},
      {"measurement": "AUC(0-t)", "setting": "in vivo; [11]", "result": 510, "unit": "µg·h/mL"},
      {"measurement": "Cmax", "setting": "in vivo; [12]", "result": 96000, "unit": "ng/mL"},
      {"measurement": "AUC(0-t)", "setting": "in vivo; [12]", "result": 2960, "unit": "µg·h/mL"},
      {"measurement": "Cmax", "setting": "in vivo; [13]", "result": 79700, "unit": "ng/mL"},
      {"measurement": "AUC(0-t)", "setting": "in vivo; [13]", "result": 2010, "unit": "µg·h/mL"},
      {"measurement": "Cmax", "setting": "in vivo; [14]", "result": 160000, "unit": "ng/mL"},
      {"measurement": "AUC(0-t)", "setting": "in vivo; [14]", "result": 2670, "unit": "µg·h/mL"},
      {"measurement": "Cmax", "setting": "in vivo; [15]", "result": 159000, "unit": "ng/mL"},
      {"measurement": "AUC(0-t)", "setting": "in vivo; [15]", "result": 1340, "unit": "µg·h/mL"},
      {"measurement": "Cmax", "setting": "in vivo; [16]", "result": 232000, "unit": "ng/mL"},
      {"measurement": "AUC(0-t)", "setting": "in vivo; [16]", "result": 7650, "unit": "µg·h/mL"},
      {"measurement": "Cmax", "setting": "in vivo; [17]", "result": 188000, "unit": "ng/mL"},
      {"measurement": "AUC(0-t)", "setting": "in vivo; [17]", "result": 5230, "unit": "µg·h/mL"},
      {"measurement": "C48h", "setting": "in vivo; once daily for 2 d, 16 mg/kg oral", "result": 75.8, "unit": "ng/mL"},
      {"measurement": "C48h", "setting": "in vivo; once daily for 2 d, 32 mg/kg oral", "result": 210, "unit": "ng/mL"},
      {"measurement": "C48h", "setting": "in vivo; once daily for 2 d, 64 mg/kg oral", "result": 1290, "unit": "ng/mL"},
      {"measurement": "C48h", "setting": "in vivo; one shot, 32 mg/kg oral", "result": 0.0591, "unit": "ng/mL"},
      {"measurement": "C48h", "setting": "in vivo; one shot, 64 mg/kg oral", "result": 1.11, "unit": "ng/mL"},
      {"measurement": "C48h", "setting": "in vivo; thrice daily for 2 d, 8 mg/kg oral", "result": 5740, "unit": "ng/mL"},
      {"measurement": "C48h", "setting": "in vivo; thrice daily for 2 d, 16 mg/kg oral", "result": "11,600 ng/mL"},
      {"measurement": "C48h", "setting": "in vivo; thrice daily for 2 d, 32 mg/kg oral", "result": "30,000 ng/mL"},
      {"measurement": "C48h", "setting": "in vivo; thrice daily for 2 d, 64 mg/kg oral", "result": "88,300 ng/mL"},
      {"measurement": "C48h", "setting": "in vivo; twice daily for 2 d, 8 mg/kg oral", "result": 1840, "unit": "ng/mL"},
      {"measurement": "C48h", "setting": "in vivo; twice daily for 2 d, 16 mg/kg oral", "result": 3760, "unit": "ng/mL"},
      {"measurement": "C48h", "setting": "in vivo; twice daily for 2 d, 32 mg/kg oral", "result": "11,400 ng/mL"},
      {"measurement": "C48h", "setting": "in vivo; twice daily for 2 d, 64 mg/kg oral", "result": "42,000 ng/mL"},
      {"measurement": "Viral titer in lungs", "setting": "[3]; 8 mg/kg oral from 24 h post-infection, 8 mg/kg", "result": "5.80 log10 TCID50/mL (2×) and 5.97 log10 TCID50/mL (2×) and 5.63 log10 TCID50/mL"},
      {"measurement": "Viral titer in lungs", "setting": "[3]; 16 mg/kg oral from 24 h post-infection, 16 mg/kg", "result": "5.80 log10 TCID50/mL and 5.63 log10 TCID50/mL and 5.53 log10 TCID50/mL (2×) and 4.97 log10 TCID50/mL"},
      {"measurement": "Viral titer in lungs", "setting": "[3]; 32 mg/kg oral from 24 h post-infection, 32 mg/kg", "result": "4.30 log10 TCID50/mL and 3.80 log10 TCID50/mL and 4.63 log10 TCID50/mL (3×)"},
      {"measurement": "Viral titer in lungs", "setting": "[3]; 64 mg/kg oral from 24 h post-infection, 64 mg/kg", "result": "2.80 log10 TCID50/mL and 3.80 log10 TCID50/mL (2×) and 3.63 log10 TCID50/mL and 3.30 log10 TCID50/mL"},
      {"measurement": "Adverse effects", "setting": "[4]", "result": "No adverse effects were observed"}
    ]},
    {"compound": "CC(C)(C)[C@H](NC(=O)C(F)(F)F)C(=O)N1C[C@H]2[C@@H]([C@H]1C(=O)N[C@H](C#N)C[C@@H]1CCNC1=O)C2(C)C", "note": "[nirmatrelvir, reference compound]", "values": [
      {"measurement": "Antiviral activity in this model", "setting": "[3]; delayed-treatment mouse model", "result": "demonstrates antiviral activity"}
    ]}
  ]
}
